# In US8088757B2, “Betulinol derivatives as anti-cancer agents” (priority 2004, dated 2012):
# Where two headings read alike, the source gives them in different places.
# What was measured:
# [1] = Tolerability of solubilized drug in mice with prostate cancer cell xenografts; type: in vivo; conditions: 22% ethanol, 2×10^−3 mol per liter of betulonic acid
# [2] = test system: LNCaP; test: MTT cytotoxicity assay, LNCaP prostate cancer cells; type: cell-based, human
# Protocol: The human prostate cancer LNCaP, PC-3, and DU-145 cell lines, as well as human fibroblast cell line, were obtained from the American Type Culture Collection (“ATCC”) and maintained in RPMI-1640, F-12k, and MEM mediums, respectively, supplemented with 10% FBS. Cell lines were maintained at 37° C. under a humidified atmosphere and 5% CO2 for testing of the cytotoxicity of betulinol derivatives. The cytotoxicity assay was performed using MTT assay according to the instructions of ATCC protocol. Cells 1×10^5 in 0.1 ml/well were plated in 96-well culture plates (Costar) and incubated with a different dilution of betulinol derivatives for 24, 48, and 72 hours. Ten μl of 3-[4,5-dimethylthiazol-2-yl]-2,5 diphenyl tetrazolium bromide was added into each well at the end of each incubation period. The reaction product, formazan, was dissolved in the detergent, and the absorbance was read at 540 nm (Ref).
# (§1) However, these compounds were not tested on prostate cancer LNCaP cell line by NCI. […] The anti-tumor activity of the compounds was determined at three doses and the total growth inhibition kill effect as pertinent of the control at 24, 48, and 72 hours as presented in Table 11.
# [3] = test system: MCF7; test: In vitro cytotoxicity, Breast (2), MCF7; type: cell-based, human
# [4] = test system: SF-268; test: In vitro cytotoxicity, CNS (2), SF-268; type: cell-based, human
# [5] = test system: NCI-H460; test: In vitro cytotoxicity, Lung (2), NCI-H460; type: cell-based, human
# Protocol: as §1
# [6] = test system: OVCAR-5; test: In vitro cytotoxicity, Ovarian (2), OVCAR-5; type: cell-based, human
# Protocol: as §1
# [7] = test system: OVACR-3; test: In vitro cytotoxicity, Ovarian (2), OVACR-3; type: cell-based, human
# Protocol: as §1
# [8] = test system: RXF 393; test: In vitro cytotoxicity, Renal (2), RXF 393; type: cell-based, human
# [9] = test system: T-47d; test: In vitro cytotoxicity, Breast (2), T-47d; type: cell-based, human
# Protocol: as §1
# [10] = test system: U251; test: In vitro cytotoxicity, CNS (2), U251; type: cell-based, human
# [11] = test system: TK-10; test: In vitro cytotoxicity, Renal (2), TK-10; type: cell-based, human
# Protocol: as §1
# [12] = test system: CAKI-1; test: In vitro cytotoxicity, Renal (2), CAKI-1; type: cell-based, human
# Protocol: as §1
# [13] = test system: DU-145; test: In vitro cytotoxicity, Prostate (2), DU-145; type: cell-based, human
# [14] = test system: NCI-H322M; test: In vitro cytotoxicity, Lung (2), NCI-H322M; type: cell-based, human
# Protocol: as §1
# [15] = test system: PC-3; test: In vitro cytotoxicity, Prostate (2), PC-3; type: cell-based, human
# [16] = test system: HOP-92; test: In vitro cytotoxicity, Lung (2), HOP-92; type: cell-based, human
# Protocol: as §1
# [17] = test system: MALME-3M; test: In vitro cytotoxicity, Melanoma (2), MALME-3M; type: cell-based, human
# [18] = test system: 184B5/HER; test: In vitro cytotoxicity, Breast (1), 184B5/HER; type: cell-based; conditions: 1 × 10^−4 M
# [19] = Homo sapiens, 24 hours, 2.5 × 10^−5 M, read-out: Growth Inhibition %
# [20] = Homo sapiens, 24 hours, 2.5 × 10^−6 M, read-out: Growth Inhibition %
# [21] = Homo sapiens, 24 hours, 2.5 × 10^−7 M, read-out: Growth Inhibition %
# [22] = Homo sapiens, 48 hours, 2.5 × 10^−5 M, read-out: Growth Inhibition %
# [23] = Homo sapiens, 48 hours, 2.5 × 10^−6 M, read-out: Growth Inhibition %
# [24] = Homo sapiens, 48 hours, 2.5 × 10^−7 M, read-out: Growth Inhibition %
smiles,measurement,setting,value
C=C(C)C1CCC2(C(=O)NCCCCC(NC(=O)OC(C)(C)C)C(=O)O)CC[C@]3(C)[C@H](CC[C@@H]4[C@@]5(C)CCC(=O)C(C)(C)[C@@H]5CC[C@]43C)C12 (stereo partly drawn) [Boc-Monomer],tolerability,[1],well tolerated
"C=C(C)C1CCC2(CO)CC[C@]3(C)[C@H](CC[C@@H]4[C@@]5(C)CCC(O)C(C)(C)[C@@H]5CC[C@]43C)C12 (stereo partly drawn) [Compound 1, Betulinol]",inhibition at 25 µM,[2]; [19],47.2%
same,inhibition at 2.5 µM,[2]; [20],11.9%
same,inhibition at 0.25 µM,[2]; [21],8.24%
same,inhibition at 25 µM,[2]; [22],31%
same,inhibition at 2.5 µM,[2]; [23],13.8%
same,inhibition at 0.25 µM,[2]; [24],10.6%
"C=C(C)[C@@H]1CC[C@]2(C(=O)O)CC[C@]3(C)[C@H](CC[C@@H]4[C@@]5(C)CC[C@H](O)C(C)(C)[C@@H]5CC[C@]43C)[C@@H]12 [Compound 2, Betulinic Acid]",Growth Inhibition %,"[2]; 24 hours, 2.5 × 10^−5 M",41.0%
"C=C(C)[C@@H]1CC[C@]2(C=O)CC[C@]3(C)[C@H](CC[C@@H]4[C@@]5(C)CC[C@H](O)C(C)(C)[C@@H]5CC[C@]43C)[C@@H]12 [Compound 3, Betulin Aldehyde]",Growth Inhibition %,"[2]; 24 hours, 2.5 × 10^−6 M",11.0%
"C=C(C)C1CCC2(C=O)CCC3(C)C(CCC4C5(C)CCC(=O)C(C)(C)C5CCC43C)C12 (stereo not drawn) [Compound 5, Betulon Aldehyde]",Percent Killed,"[3]; MCF7, 1 × 10^−4 M",68%
same,Percent Killed,"[4]; SF-268, 1 × 10^−4 M",27%
same,inhibition at 25 µM,[2]; [19],19%
same,inhibition at 2.5 µM,[2]; [20],21.9%
same,inhibition at 0.25 µM,[2]; [21],6.34%
same,inhibition at 25 µM,[2]; [22],40.2%
same,inhibition at 2.5 µM,[2]; [23],47.4%
same,inhibition at 0.25 µM,[2]; [24],29.8%
same,Percent Killed,"[5]; NCI-H460, 1 × 10^−4 M",89%
"C=C(C)[C@@H]1CC[C@]2(COC(C)=O)CC[C@]3(C)[C@H](CC[C@@H]4[C@@]5(C)CC[C@H](OC(C)=O)C(C)(C)[C@@H]5CC[C@]43C)[C@@H]12 [Compound 6, Betulin Diacetate]",Percent Killed,"[6]; OVCAR-5, 1 × 10^−4 M",100%
same,Percent Killed,"[6]; OVCAR-5, 1 × 10^−5 M",100%
same,Percent Killed,"[6]; OVCAR-5, 1 × 10^−6 M",100%
same,Percent Killed,"[3]; MCF7, 1 × 10^−4 M",100%
same,Percent Killed,"[3]; MCF7, 1 × 10^−5 M",100%
same,Percent Killed,"[3]; MCF7, 1 × 10^−6 M",100%
same,Percent Killed,"[3]; MCF7, 1 × 10^−7 M",100%
same,Percent Killed,"[4]; SF-268, 1 × 10^−4 M",100%
same,Percent Killed,"[4]; SF-268, 1 × 10^−5 M",100%
same,Percent Killed,"[4]; SF-268, 1 × 10^−6 M",100%
same,Percent Killed,"[4]; SF-268, 1 × 10^−7 M",75%
same,Percent Killed,"[4]; SF-268, 1 × 10^−8 M",15%
same,Percent Killed,"[7]; OVACR-3, 1 × 10^−4 M",100%
same,Percent Killed,"[7]; OVACR-3, 1 × 10^−5 M",100%
same,Percent Killed,"[7]; OVACR-3, 1 × 10^−6 M",96%
same,Percent Killed,"[8]; RXF 393, 1 × 10^−4 M",100%
same,Percent Killed,"[8]; RXF 393, 1 × 10^−5 M",100%
same,Percent Killed,"[8]; RXF 393, 1 × 10^−6 M",100%
same,Percent Killed,"[8]; RXF 393, 1 × 10^−7 M",97%
same,Percent Killed,"[8]; RXF 393, 1 × 10^−8 M",15%
same,Percent Killed,[9]; 1 × 10^−4 M,100%
same,Percent Killed,[9]; 1 × 10^−5 M,100%
same,Percent Killed,[9]; 1 × 10^−6 M,100%
same,Percent Killed,[9]; 1 × 10^−7 M,23%
same,Percent Killed,"[10]; U251, 1 × 10^−4 M",100%
same,Percent Killed,"[10]; U251, 1 × 10^−5 M",100%
same,Percent Killed,"[10]; U251, 1 × 10^−6 M",100%
same,Percent Killed,"[10]; U251, 1 × 10^−7 M",100%
same,Percent Killed,"[11]; TK-10, 1 × 10^−4 M",100%
same,Percent Killed,"[11]; TK-10, 1 × 10^−5 M",100%
same,Percent Killed,"[11]; TK-10, 1 × 10^−6 M",49%
same,inhibition at 25 µM,[2]; [19],17%
same,inhibition at 2.5 µM,[2]; [20],18.7%
same,inhibition at 0.25 µM,[2]; [21],0%
same,inhibition at 25 µM,[2]; [22],56.6%
same,inhibition at 2.5 µM,[2]; [23],46.7%
same,inhibition at 0.25 µM,[2]; [24],27.9%
same,Percent Killed,"[12]; CAKI-1, 1 × 10^−4 M",100%
same,Percent Killed,"[12]; CAKI-1, 1 × 10^−5 M",100%
same,Percent Killed,"[12]; CAKI-1, 1 × 10^−6 M",100%
same,Percent Killed,"[13]; DU-145, 1 × 10^−4 M",100%
same,Percent Killed,"[13]; DU-145, 1 × 10^−5 M",100%
same,Percent Killed,"[13]; DU-145, 1 × 10^−6 M",100%
same,Percent Killed,"[13]; DU-145, 1 × 10^−7 M",100%
same,Percent Killed,"[13]; DU-145, 1 × 10^−8 M",27%
same,Percent Killed,"[5]; NCI-H460, 1 × 10^−4 M",100%
same,Percent Killed,"[5]; NCI-H460, 1 × 10^−5 M",100%
same,Percent Killed,"[5]; NCI-H460, 1 × 10^−6 M",100%
same,Percent Killed,"[5]; NCI-H460, 1 × 10^−7 M",25%
same,Percent Killed,[14]; 1 × 10^−4 M,100%
same,Percent Killed,[14]; 1 × 10^−5 M,100%
same,Percent Killed,[14]; 1 × 10^−6 M,100%
same,Percent Killed,"[15]; PC-3, 1 × 10^−4 M",25%
same,Percent Killed,"[15]; PC-3, 1 × 10^−5 M",15%
same,Percent Killed,"[16]; HOP-92, 1 × 10^−4 M",100%
same,Percent Killed,"[16]; HOP-92, 1 × 10^−5 M",100%
same,Percent Killed,"[16]; HOP-92, 1 × 10^−6 M",100%
same,Percent Killed,[17]; 1 × 10^−4 M,100%
same,Percent Killed,[17]; 1 × 10^−5 M,100%
same,Percent Killed,[17]; 1 × 10^−6 M,100%
same,Percent Killed,[17]; 1 × 10^−7 M,100%
same,Percent Killed,[17]; 1 × 10^−8 M,98%
"C=C(C)C1CCC2(COC)CCC3(C)C(CCC4C5(C)CCC(OC)C(C)(C)C5CCC43C)C12 (stereo not drawn) [Compound 7, Betulin Dimethyl ether (Cornelon)]",Percent Killed,"[3]; MCF7, 1 × 10^−4 M",97%
same,Percent Killed,"[4]; SF-268, 1 × 10^−4 M",100%
same,inhibition at 25 µM,[2]; [19],45%
same,inhibition at 2.5 µM,[2]; [20],18.1%
same,inhibition at 0.25 µM,[2]; [21],7.76%
same,inhibition at 25 µM,[2]; [22],50.9%
same,inhibition at 2.5 µM,[2]; [23],44%
same,inhibition at 0.25 µM,[2]; [24],27.9%
same,Percent Killed,[18],Toxic
same,Percent Killed,"[5]; NCI-H460, 1 × 10^−4 M",80%
"C=C(C)[C@@H]1CC[C@]2(CO)CC[C@]3(C)[C@H](CC[C@@H]4[C@@]5(C)CC[C@H](OC(C)=O)C(C)(C)[C@@H]5CC[C@]43C)[C@@H]12 [Compound 8, 3-Acetoxy Betulin]",Growth Inhibition %,"[2]; 24 hours, 2.5 × 10^−7 M",0%
C=C(C)C1CCC2(C(=O)NCCCCC(NC(=O)OC(C)(C)C)C(=O)OC)CC[C@]3(C)[C@H](CC[C@@H]4[C@@]5(C)CCC(=O)C(C)(C)[C@@H]5CC[C@]43C)C12 (stereo partly drawn) [Monomer],cells killed,[2]; 1×10^−4 M,~80%
same,inhibition at 100 µM,"[2]; Homo sapiens, 48 hours, 1 × 10^−4 M, read-out: Growth Inhibition %",82.8 ± 14.3%
